Patent publication US11008334B2, “Compositions and methods for treating cancer” (The Regents of the University of California, priority 2012, dated 2021)
Read-outs that look alike come from different tables or passages of the source.

Target: T1, K-RasG12C (1-169) (Homo sapiens, UniProt P01116, G12C)
T1 construct: Un-tagged recombinant K-Ras G12C (1-169) at 4 μM in Buffer A; hexahistidine (cleaved yes); made in house; host or cells: Escherichia coli BL21 (DE)
Test: Mass spectrometric screen for extent of covalent labeling
Type: binding
Conditions: for percent covalent labeling at 10 µM: 10 micromolar; for Labeling % (10 micM) 24h: 10 micM compound, (plate) or (single) measurement
Procedure: Un-tagged recombinant K-Ras G12C (1-169) at 4 μM in Buffer A was reacted with inhibitors at 200 μM or 10 μM (2% DMSO final). At 2, 6, and 24 hrs, 10 μL aliquots were removed and the reactions were stopped by addition of 1 μL 2% formic acid. The extent of modification was determined by mass spectrometry.

[1] = 2 h, 2 hrs, read-out: Percent reduction in activity of compound at 10 micromolar relative to control (no compound), 2 hrs
[2] = 6 h, 6 hrs, read-out: Percent reduction in activity of compound at 10 micromolar relative to control (no compound), 6 hrs
[3] = 24 h, 24 hrs, read-out: Percent reduction in activity of compound at 10 micromolar relative to control (no compound), 24 hrs

Row | percent covalent labeling at 10 µM [1] [%] | percent covalent labeling at 10 µM [2] [%] | percent covalent labeling at 10 µM [3] [%] | Labeling % (10 micM) 24h (Table 5) | Labeling % (10 micM) 24h | SMILES
1 | ≤ 5 | ≤ 5 | 5 to 20 |  |  | C=CS(=O)(=O)NC1CCN(C(=O)COc2ccc(Cl)cc2C(F)(F)F)CC1 [Ras-067]
2 |  | 5 to 20 | > 60 |  |  | C=CS(=O)(=O)NC1CCN(C(=O)CNc2cc(OC)c(Cl)cc2I)CC1 [Ras-077]
3 | ≤ 5 | ≤ 5 | ≤ 5 |  |  | C=CS(=O)(=O)NC1CCN(C(=O)[C@@H](C)Oc2ccc(Cl)cc2Cl)CC1 [JO-02-115C]
4 | ≤ 5 | ≤ 5 |  | ++ (plate) (5% < ++ <=20%) | ++ (plate) (5% < ++ <=20%) | C=CS(=O)(=O)NC1CCN(C(=O)COc2ccc(Cl)cc2Cl)CC1 [JO-02-31A]
5 | ≤ 5 | ≤ 5 | 5 to 20 |  |  | C=CS(=O)(=O)NC1CCN(C(=O)COc2cc(C#N)c(Cl)cc2Cl)CC1 [Ras-013]
6 | 5 to 20 | 20 to 40 | > 60 | +++++ (plate) (60% < +++++) | +++++ (plate) (60% < +++++) | C=CS(=O)(=O)NC1CCN(C(=O)CNc2cc(Cl)c(Cl)cc2O)CC1 [Ras-055]
7 | ≤ 5 | ≤ 5 | 5 to 20 |  |  | C=CS(=O)(=O)NC1CCN(C(=O)COc2cc(CO)c(Cl)cc2Cl)CC1 [Ras-050]
8 | ≤ 5 | ≤ 5 | ≤ 5 |  |  | C=CS(=O)(=O)NC1CCN(C(=O)COc2cc(NC(C)=O)c(Cl)cc2Cl)CC1 [Ras-022]
9 | ≤ 5 | ≤ 5 | 40 to 60 |  |  | C=CS(=O)(=O)NC1CCN(C(=O)COc2ccc(Cl)cc2I)CC1 [Ras-030]
10 | ≤ 5 | ≤ 5 | ≤ 5 |  |  | C=CS(=O)(=O)NC1CCN(C(=O)CSc2c(Cl)cccc2Cl)CC1 [JO-02-31D]

Second part, the compound before the results:

Row | SMILES | percent covalent labeling at 10 µM [1] [%] | percent covalent labeling at 10 µM [2] [%] | percent covalent labeling at 10 µM [3] [%] | Labeling % (10 micM) 24h (Table 5) | Labeling % (10 micM) 24h
11 | C=CS(=O)(=O)NC1CCN(C(=O)CSc2nnc(C)s2)CC1 [UP-I-164A] | ≤ 5 | ≤ 5 | ≤ 5 |  | 
12 | C=CS(=O)(=O)NC1CCN(C(=O)COc2ccc(Cl)cc2C(=O)N2CCC(NS(=O)(=O)C=C)CC2)CC1 [Ras-046] | ≤ 5 | ≤ 5 | ≤ 5 |  | 
13 | C=CS(=O)(=O)NC1CCN(C(=O)COc2cc(C(C)(C)O)c(Cl)cc2Cl)CC1 [Ras-074] |  |  | 40 to 60 |  | 
14 | C=CC(=O)N1CCN(C(=O)CNc2cc(I)c(Cl)cc2OC)CC1 [Ras-080] |  |  | 20 to 40 |  | 
15 | C=CS(=O)(=O)NC1CCN(C(=O)COc2nc(Cl)c(Cl)cc2Cl)CC1 [JO-02-116B] | ≤ 5 | ≤ 5 | ≤ 5 |  | 
16 | C=CS(=O)(=O)NC1CCN(C(=O)CNc2cc(I)c(Cl)cc2O)CC1 [Ras-084] | 20 to 40 | > 60 | > 60 |  | 
17 | C=CS(=O)(=O)NC1CCN(C(=O)CNc2cc(I)c(Cl)cc2OC)CC1 [Ras-079] | 20 to 40 | > 60 | > 60 | +++++ (single) (60% < +++++) | 
18 | C=CS(=O)(=O)N1CCC(Nc2cc(-c3cc(Cl)c(Cl)cc3I)ccn2)CC1 [Ras-072] | ≤ 5 | ≤ 5 | ≤ 5 |  | 
19 | C=CS(=O)(=O)NC1CCN(C(=O)CNc2c(Cl)cc(Cl)c3nonc23)CC1 [UP-I-187] | ≤ 5 | ≤ 5 | 20 to 40 | +++ (single) (20%< +++ <=40%) | 
20 | C=CS(=O)(=O)NC1CCN(C(=O)COc2ccc3nncn3n2)CC1 [UP-I-165C] | ≤ 5 | ≤ 5 | ≤ 5 |  | 
